Results from patent US8192962B2, “Processes for detecting toxic substances” (Daikin Industries, Ltd., priority 2001, dated 2012).

System: Energy system protein genes
Assay: DNA chip mRNA expression in yeast, energy system protein genes (Table 4)
Format: cell-based, Saccharomyces cerevisiae S288C
Method in brief: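 Untreated cultures served as reference for log-phase S288C yeast given a growth-inhibiting, non-lethal toxicant dose for 2 h at 25° C. in YPD. Gene expression was measured on a whole-genome DNA chip from Cy3/Cy5-labeled cDNA.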

For “manganese ethylenebis(dithiocarbamate) [(8)]”, the “The level of expressed mRNA in the presence of chemical substance/The level of expressed mRNA in the absence of chemical substance” value (yeast gene YAL060W) was 0.9, the “The level of expressed mRNA in the presence of chemical substance/The level of expressed mRNA in the absence of chemical substance” value (yeast gene YBL058W, cells incubated two hours with the chemical substance) was 1.2 and the “The level of expressed mRNA in the presence of chemical substance/The level of expressed mRNA in the absence of chemical substance” value (yeast gene YBL099W, cells incubated two hours with the chemical substance) was 0.8. The “The level of expressed mRNA in the presence of chemical substance/The level of expressed mRNA in the absence of chemical substance” value (yeast gene YBR001C, cells incubated two hours with the chemical substance) was 1.3, the “The level of expressed mRNA in the presence of chemical substance/The level of expressed mRNA in the absence of chemical substance” value (yeast gene YBR185C, cells incubated two hours with the chemical substance) was 1.1 and the “The level of expressed mRNA in the presence of chemical substance/The level of expressed mRNA in the absence of chemical substance” value (yeast gene YBR221C, cells incubated two hours with the chemical substance) was 0.8. The “The level of expressed mRNA in the presence of chemical substance/The level of expressed mRNA in the absence of chemical substance” value (yeast gene YCL040W) was 0.7, the “The level of expressed mRNA in the presence of chemical substance/The level of expressed mRNA in the absence of chemical substance” value (yeast gene YCR012W) was 0.8 and the “The level of expressed mRNA in the presence of chemical substance/The level of expressed mRNA in the absence of chemical substance” value (yeast gene YCR046C, cells incubated two hours with the chemical substance) was 0.9. The “The level of expressed mRNA in the presence of chemical substance/The level of expressed mRNA in the absence of chemical substance” value (yeast gene YCR105W, cells incubated two hours with the chemical substance) was 1.4, the “The level of expressed mRNA in the presence of chemical substance/The level of expressed mRNA in the absence of chemical substance” value (yeast gene YDL021W) was 2.7 and the “The level of expressed mRNA in the presence of chemical substance/The level of expressed mRNA in the absence of chemical substance” value (yeast gene YDL067C, cells incubated two hours with the chemical substance) was 1.1. The “The level of expressed mRNA in the presence of chemical substance/The level of expressed mRNA in the absence of chemical substance” value (yeast gene YDL078C, cells incubated two hours with the chemical substance) was 1.0, the “The level of expressed mRNA in the presence of chemical substance/The level of expressed mRNA in the absence of chemical substance” value (yeast gene YDL107W, cells incubated two hours with the chemical substance) was 1.8 and the “The level of expressed mRNA in the presence of chemical substance/The level of expressed mRNA in the absence of chemical substance” value (yeast gene YDL174C) was 0.8. For the same substance, the “The level of expressed mRNA in the presence of chemical substance/The level of expressed mRNA in the absence of chemical substance” value (yeast gene YDL181W, cells incubated two hours with the chemical substance) was 0.6, the “The level of expressed mRNA in the presence of chemical substance/The level of expressed mRNA in the absence of chemical substance” value (yeast gene YDR001C) was 0.9 and the “The level of expressed mRNA in the presence of chemical substance/The level of expressed mRNA in the absence of chemical substance” value (yeast gene YDR050C, cells incubated two hours with the chemical substance) was 1.3. The “The level of expressed mRNA in the presence of chemical substance/The level of expressed mRNA in the absence of chemical substance” value (yeast gene YDR079W, cells incubated two hours with the chemical substance) was 2.6, the “The level of expressed mRNA in the presence of chemical substance/The level of expressed mRNA in the absence of chemical substance” value (yeast gene YDR178W, cells incubated two hours with the chemical substance) was 0.9 and the “The level of expressed mRNA in the presence of chemical substance/The level of expressed mRNA in the absence of chemical substance” value (yeast gene YDR231C) was 1.3. For the same substance, the “The level of expressed mRNA in the presence of chemical substance/The level of expressed mRNA in the absence of chemical substance” value (yeast gene YDR298C, cells incubated two hours with the chemical substance) was 1.2, the “The level of expressed mRNA in the presence of chemical substance/The level of expressed mRNA in the absence of chemical substance” value (yeast gene YDR377W, cells incubated two hours with the chemical substance) was 1.3 and the “The level of expressed mRNA in the presence of chemical substance/The level of expressed mRNA in the absence of chemical substance” value (yeast gene YDR529C, cells incubated two hours with the chemical substance) was 1.3. For the same substance, the “The level of expressed mRNA in the presence of chemical substance/The level of expressed mRNA in the absence of chemical substance” value (yeast gene YEL024W, cells incubated two hours with the chemical substance) was 1.0, the “The level of expressed mRNA in the presence of chemical substance/The level of expressed mRNA in the absence of chemical substance” value (yeast gene YEL039C, cells incubated two hours with the chemical substance) was 1.1 and the “The level of expressed mRNA in the presence of chemical substance/The level of expressed mRNA in the absence of chemical substance” value (yeast gene YER178W) was 0.8. For the same substance, the “The level of expressed mRNA in the presence of chemical substance/The level of expressed mRNA in the absence of chemical substance” value (yeast gene YFL057C) was 18.0, the “The level of expressed mRNA in the presence of chemical substance/The level of expressed mRNA in the absence of chemical substance” value (yeast gene YFR053C) was 2.8 and the “The level of expressed mRNA in the presence of chemical substance/The level of expressed mRNA in the absence of chemical substance” value (yeast gene YGL018C, cells incubated two hours with the chemical substance) was 0.8. The “The level of expressed mRNA in the presence of chemical substance/The level of expressed mRNA in the absence of chemical substance” value (yeast gene YGL062W) was 0.8, the “The level of expressed mRNA in the presence of chemical substance/The level of expressed mRNA in the absence of chemical substance” value (yeast gene YGL187C, cells incubated two hours with the chemical substance) was 0.7 and the “The level of expressed mRNA in the presence of chemical substance/The level of expressed mRNA in the absence of chemical substance” value (yeast gene YGL191W, cells incubated two hours with the chemical substance) was 1.6. For the same substance, the “The level of expressed mRNA in the presence of chemical substance/The level of expressed mRNA in the absence of chemical substance” value (yeast gene YGL205W, cells incubated two hours with the chemical substance) was 1.2, the “The level of expressed mRNA in the presence of chemical substance/The level of expressed mRNA in the absence of chemical substance” value (yeast gene YGL256W, cells incubated two hours with the chemical substance) was 1.0 and the “The level of expressed mRNA in the presence of chemical substance/The level of expressed mRNA in the absence of chemical substance” value (yeast gene YGR043C) was 2.6. For the same substance, the “The level of expressed mRNA in the presence of chemical substance/The level of expressed mRNA in the absence of chemical substance” value (yeast gene YGR062C, cells incubated two hours with the chemical substance, 25° C., YPD medium) was 0.8, the “The level of expressed mRNA in the presence of chemical substance/The level of expressed mRNA in the absence of chemical substance” value (yeast gene YGR087C, cells incubated two hours with the chemical substance) was 0.8 and the “The level of expressed mRNA in the presence of chemical substance/The level of expressed mRNA in the absence of chemical substance” value (yeast gene YGR174C, cells incubated two hours with the chemical substance) was 1.6. The “The level of expressed mRNA in the presence of chemical substance/The level of expressed mRNA in the absence of chemical substance” value (yeast gene YGR192C) was 1.1, the “The level of expressed mRNA in the presence of chemical substance/The level of expressed mRNA in the absence of chemical substance” value (yeast gene YGR244C) was 1.8 and the “The level of expressed mRNA in the presence of chemical substance/The level of expressed mRNA in the absence of chemical substance” value (yeast gene YGR254W) was 1.4. For the same substance, the “The level of expressed mRNA in the presence of chemical substance/The level of expressed mRNA in the absence of chemical substance” value (yeast gene YHR179W) was 3.3, the “The level of expressed mRNA in the presence of chemical substance/The level of expressed mRNA in the absence of chemical substance” value (yeast gene YIL160C) was 1.2 and the “The level of expressed mRNA in the presence of chemical substance/The level of expressed mRNA in the absence of chemical substance” value (yeast gene YIR031C, cells incubated two hours with the chemical substance) was 1.0. For the same substance, the “The level of expressed mRNA in the presence of chemical substance/The level of expressed mRNA in the absence of chemical substance” value (yeast gene YJL052W) was 1.5, the “The level of expressed mRNA in the presence of chemical substance/The level of expressed mRNA in the absence of chemical substance” value (yeast gene YJL121C, cells incubated two hours with the chemical substance) was 1.0 and the “The level of expressed mRNA in the presence of chemical substance/The level of expressed mRNA in the absence of chemical substance” value (yeast gene YJL166W, cells incubated two hours with the chemical substance) was 1.4. For the same substance, the “The level of expressed mRNA in the presence of chemical substance/The level of expressed mRNA in the absence of chemical substance” value (yeast gene YJL216C, cells incubated two hours with the chemical substance) was 1.9 and the “The level of expressed mRNA in the presence of chemical substance/The level of expressed mRNA in the absence of chemical substance” value (yeast gene YJR009C) was 1.1.
